From US7202265B2, “Indolinone combinatorial libraries and related products and methods for the treatment of disease” (Sugen, Inc., priority 1997, dated 2007)
Like-named read-outs stand apart in the source and are kept apart here.

How the values were obtained:
FLK-1 receptor = target: T1, FLK-1 receptor (Mus musculus, UniProt P35918); experiment: FLK-1 ELISA (catalytic activity of the FLK-1 receptor in FLK-1/NIH3T3 cells); assay type: cell-based; set-up: Flk Kinase % Inhibition: concentration or dose not given beside the values; conditions: for Activity EC200: Table 8
T1 construct: expressed in transfected cells; host or cells: NIH3T3 C7#3 (FLK-1/NIH3T3)

human MET = experiment: MET biochemical kinase assay; set-up: concentration or dose not given beside the values
Text: (d) MET Biochemical Kinase Assay
A met biochemical kinase assay may be performed for met generally as described above for other kinases by substituting that or the other kinases. In particular, ELISA plates are coated with goat anti-rabbit Fc antibodies, which are used to capture commercially available (from Santa Cruz Biotechnology) rabbit polyclonal antibodies to the cytoplasmic domain of human MET. […] The chimeric receptors, or MET, from these lysates are captured on the antibody coated plates. After washing away extraneous proteins, test compounds are added and an in vitro kinase assay is performed by addition of an appropriate kinase buffer (containing ATP, divalent metal ions, etc.). Incorporation of phosphate into the captured receptors is detected with an anti-phosphotyrosine antibody conjugate with horse radish peroxidase using TMB as a substrate for calorimetric detection.

[1] = Table 10, read-out: FLK Kinase IC50
[2] = Table 2, read-out: FLK Kinase IC50
[3] = Table 6, read-out: FLK Kinase IC50

T1 sequence (P35918 20-1345): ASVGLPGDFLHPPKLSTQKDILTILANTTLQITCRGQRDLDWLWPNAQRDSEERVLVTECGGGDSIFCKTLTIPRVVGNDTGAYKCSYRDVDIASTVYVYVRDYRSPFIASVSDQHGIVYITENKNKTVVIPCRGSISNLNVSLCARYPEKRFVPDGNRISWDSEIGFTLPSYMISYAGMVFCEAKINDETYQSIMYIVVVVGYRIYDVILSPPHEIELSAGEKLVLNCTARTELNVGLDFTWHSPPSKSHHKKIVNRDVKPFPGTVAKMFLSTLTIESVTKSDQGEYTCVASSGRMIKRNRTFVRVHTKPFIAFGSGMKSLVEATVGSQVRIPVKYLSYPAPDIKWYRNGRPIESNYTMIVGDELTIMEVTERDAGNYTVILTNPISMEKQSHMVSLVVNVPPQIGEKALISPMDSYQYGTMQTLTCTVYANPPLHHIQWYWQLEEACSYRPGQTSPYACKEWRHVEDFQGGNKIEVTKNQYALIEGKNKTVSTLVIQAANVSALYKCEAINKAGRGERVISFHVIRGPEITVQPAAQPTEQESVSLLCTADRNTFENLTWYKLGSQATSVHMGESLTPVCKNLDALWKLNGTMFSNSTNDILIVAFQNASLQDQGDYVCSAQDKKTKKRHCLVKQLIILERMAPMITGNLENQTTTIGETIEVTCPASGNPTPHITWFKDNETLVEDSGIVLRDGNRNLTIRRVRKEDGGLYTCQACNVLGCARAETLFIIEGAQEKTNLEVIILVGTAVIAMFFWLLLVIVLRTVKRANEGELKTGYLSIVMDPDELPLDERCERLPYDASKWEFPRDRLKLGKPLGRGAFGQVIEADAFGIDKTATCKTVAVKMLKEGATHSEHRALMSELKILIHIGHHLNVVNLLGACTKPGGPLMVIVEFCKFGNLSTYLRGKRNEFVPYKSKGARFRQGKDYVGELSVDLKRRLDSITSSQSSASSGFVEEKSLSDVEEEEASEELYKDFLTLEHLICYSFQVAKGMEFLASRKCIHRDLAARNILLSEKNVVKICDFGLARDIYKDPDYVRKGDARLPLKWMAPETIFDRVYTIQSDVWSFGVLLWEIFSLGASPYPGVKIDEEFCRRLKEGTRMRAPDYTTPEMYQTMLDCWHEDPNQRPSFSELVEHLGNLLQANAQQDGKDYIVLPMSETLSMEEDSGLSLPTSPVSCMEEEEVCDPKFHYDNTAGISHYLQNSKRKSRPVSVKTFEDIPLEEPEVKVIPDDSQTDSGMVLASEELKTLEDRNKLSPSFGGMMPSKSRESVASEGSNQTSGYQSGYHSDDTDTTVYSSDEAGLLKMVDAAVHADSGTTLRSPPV

Row | Compound | Met Kinase % Inhibition (human MET) [%] | also measured
1 | CN(C)CCCOc1ccc(/C=C2\C(=O)Nc3ccc(N)cc32)cc1 |  | IC50 (FLK-1 receptor; [1]): 13.7 µM
2 | O=C1Nc2ccc(Cl)cc2/C1=C/c1ccc[nH]1 |  | IC50 (FLK-1 receptor; [1]): 1.6 µM
3 | Cc1cccc2c1/C(=C/c1ccc(OCCCN(C)C)cc1)C(=O)N2 |  | IC50 (FLK-1 receptor; [1]): 8 µM
4 | COc1ccc(OC)c(/C=C2\C(=O)Nc3cccc(C)c32)c1 |  | IC50 (FLK-1 receptor; [1]): 10.4 µM
5 | Cn1cc(/C=C2\C(=O)Nc3ccc(N)cc32)c2ccccc21 |  | IC50 (FLK-1 receptor; [2]): 2.5 µM
6 | CCc1cc(CC)c(/C=C2\C(=O)Nc3ccc(N)cc32)[nH]1 |  | IC50 (FLK-1 receptor; [1]): 5.6 µM
7 | CCc1cc(CC)c(/C=C2\C(=O)Nc3ccc(C(=O)O)cc32)[nH]1 |  | Activity EC200 (FLK-1 receptor): ActivityEC200 = 2.8 μm
8 | Cc1cccc2c1/C(=C/c1cc(C(C)C)c(OCc3ccccc3)c(C(C)C)c1)C(=O)N2 |  | IC50 (FLK-1 receptor; [1]): 19.9 µM
9 | COc1ccc(/C=C2\C(=O)Nc3ccccc32)cc1O |  | IC50 (FLK-1 receptor; [1]): 2.9 µM
10 | CN(C)CCCOc1ccc(/C=C2\C(=O)Nc3ccccc32)cc1 |  | IC50 (FLK-1 receptor; [1]): 4 µM
11 | CN(C)CCCOc1ccc(/C=C2\C(=O)Nc3ccc(Cl)cc32)cc1 |  | IC50 (FLK-1 receptor; [1]): 11.5 µM
12 | O=C1Nc2c(Br)cc(Cl)cc2/C1=C/c1cc(O)c(O)c(Br)c1 |  | IC50 (FLK-1 receptor; [1]): 8.8 µM
13 | O=C1Nc2ccc(CCCl)cc2C1=Cc1cccc(Br)c1 [10723/G10] |  | Flk Kinase % Inhibition (FLK-1 receptor): 3.5%
14 | CC(C)(C)c1cc(/C=C2\C(=O)Nc3ccc([N+](=O)[O-])cc32)cc([N+](=O)[O-])c1OCc1ccccc1 |  | IC50 (FLK-1 receptor; [1]): 16.4 µM
15 | Cc1cc(C)c(/C=C2\C(=O)Nc3ccc(C(=O)O)cc32)[nH]1 |  | Activity EC200 (FLK-1 receptor): ActivityEC200 = 2.8 μm
16 | COc1cc2c(cc1OC)/C(=C/c1coc3ccc(C(C)C)cc3c1=O)C(=O)N2 |  | IC50 (FLK-1 receptor; [1]): 17.1 µM
17 | Nc1ccc2c(c1)/C(=C/c1ccc(N3CCCC3)cc1)C(=O)N2 |  | IC50 (FLK-1 receptor; [1]): 18.4 µM
18 | Cc1cc(C)c(/C=C2\C(=O)Nc3ccc(CCC(=O)O)cc32)[nH]1 |  | Activity EC200 (FLK-1 receptor): ActivityEC200 = 32 μm
19 | Cc1ccc(/C=C2\C(=O)Nc3ccc(C(=O)O)cc32)s1 |  | Activity EC200 (FLK-1 receptor): ActivityEC200 = 46 μm
20 | COC(=O)CCc1c[nH]c(/C=C2\C(=O)Nc3cccc(C)c32)c1C |  | IC50 (FLK-1 receptor; [1]): 10.8 µM
21 | O=C1Nc2ccc(Cl)cc2/C1=C/c1cc2c([nH]1)CCCC2 |  | IC50 (FLK-1 receptor; [3]): 5 µM

Row | Compound | Met Kinase % Inhibition (human MET) [%] | also measured
22 | O=C1Nc2ccc(Br)cc2/C1=C\c1cc2c([nH]1)CCCC2 [compound 0129] |  | IC50 (FLK-1 receptor; Table 7, read-out: Activity 1C50 FLK Kinase): 19.6 µM
23 | Cc1ccc(/C=C2\C(=O)Nc3ccc(CCC(=O)O)cc32)s1 |  | Activity EC200 (FLK-1 receptor): ActivityEC200 > 100 μm
24 | O=CN1CCN(c2ccc(/C=C3\C(=O)Nc4ccc(Cl)cc43)cc2)CC1 |  | IC50 (FLK-1 receptor; [1]): 5.8 µM
25 | Cc1cc(C)c(/C=C2\C(=O)Nc3cccc(C)c32)[nH]1 |  | IC50 (FLK-1 receptor; [1]): 7.3 µM
26 | Cn1cc(/C=C2\C(=O)Nc3ccccc32)c2ccccc21 |  | IC50 (FLK-1 receptor; [2]): 0.7 µM
27 | O=C1Nc2ccccc2/C1=C/c1ccc(N2CCCC2)cc1 |  | IC50 (FLK-1 receptor; [1]): 9.9 µM
28 | O=C1Nc2ccccc2/C1=C/c1cc2c([nH]1)CCCC2 |  | IC50 (FLK-1 receptor; [3]): 1.4 µM
29 | CC(C)c1cc(C(C)C)c(/C=C2\C(=O)Nc3ccc(C(=O)O)cc32)[nH]1 |  | Activity EC200 (FLK-1 receptor): ActivityEC200 = 10 μm
30 | COC(=O)CCc1c[nH]c(/C=C2\C(=O)Nc3ccccc32)c1C |  | IC50 (FLK-1 receptor; [1]): 12.5 µM
31 | Cc1cccc2c1/C(=C/c1cn(C)c3ccccc13)C(=O)N2 |  | IC50 (FLK-1 receptor; [2]): 7.7 µM
32 | CCc1ccc(/C=C2\C(=O)Nc3ccccc32)cc1 |  | IC50 (FLK-1 receptor; [1]): 20.3 µM
33 | COc1cccc(O)c1C=C1C(=O)Nc2ccc(S(=O)(=O)N3CCOCC3)cc21 [10717/F10] |  | Flk Kinase % Inhibition (FLK-1 receptor): −4.4%
34 | COc1c(C)cc(C=C2C(=O)Nc3ccc(CCCl)cc32)cc1C [10733/G06] | 0.8 | 
35 | CNS(=O)(=O)c1ccc2c(c1)C(=Cc1ccccc1O)C(=O)N2 [10720/D05] | 9.8 | 
36 | COc1ccc(C=C2C(=O)Nc3ccc(Br)c(C)c32)cc1OC [10720/C04] | 29.0 | 
37 | Cc1cc(C=C2C(=O)Nc3ccc(S(=O)(=O)Nc4ccc(C(F)(F)F)cc4)cc32)cc(C)c1OCc1ccccc1 [10733/E07] | −10.1 | 
38 | CC(C)(C)c1cc(C=C2C(=O)Nc3ccc(S(=O)(=O)Nc4ccc(C(F)(F)F)cc4)cc32)ccc1O [10721/E09] | 0.7 | 
39 | O=C1Nc2ccc(CCCl)cc2C1=Cc1cccn1-c1ccc(Cl)cc1 [10724/G09] | −2.8 | 
40 | O=C1Nc2ccc(S(=O)(=O)N3CCOCC3)cc2C1=Cc1ccc(Br)cc1 [10717/F08] | 64.0 | 
41 | CCOC(=O)c1cc(C=C2C(=O)Nc3ccc(Br)c(C)c32)oc1C [10718/C06] | 3.9 | 
42 | CCOC(=O)c1c(C)[nH]c(C=C2C(=O)Nc3ccc(S(=O)(=O)NC)cc32)c1C [10718/D02] | 32.0 | 

Row | Compound | Met Kinase % Inhibition (human MET) [%] | also measured
43 | O=C1Nc2ccc(I)cc2C1=Cc1ccc(C(F)(F)F)cc1 [10722/B11] | 83.0 | 
44 | CCOc1cccc(C=C2C(=O)Nc3ccc(S(=O)(=O)NC)cc32)c1O [10734/D02] | 46.0 | 
45 | Cc1c(Br)ccc2c1C(=Cc1ccc(O)cc1O)C(=O)N2 [10723/C08] | 83.0 | 
46 | CC(C)(C)c1cc(C=C2C(=O)Nc3ccc(CCCl)cc32)cc(Br)c1O [10721/G10] | 12.0 | 
47 | Cc1c(Br)ccc2c1C(=Cc1ccc(O)cc1)C(=O)N2 [10719/C07] | 7.7 | 
48 | CNS(=O)(=O)c1ccc2c(c1)C(=Cc1cc([N+](=O)[O-])cc(CCl)c1O)C(=O)N2 [10721/D06] | 9.0 | 
49 | N#Cc1cccc(C=C2C(=O)Nc3ccc(S(=O)(=O)Nc4ccc(C(F)(F)F)cc4)cc32)c1 [10727/E08] | 27.0 | 
50 | CNS(=O)(=O)c1ccc2c(c1)C(=Cc1cc(C(C)C)c(O)c(C(C)C)c1)C(=O)N2 [10724/D06] | 23.0 | 
51 | O=C1Nc2ccc(S(=O)(=O)Nc3ccc(C(F)(F)F)cc3)cc2C1=Cc1c[nH]cn1 [10725/E11] | 9.6 | 
52 | O=C1Nc2ccc(CCCl)cc2C1=Cc1ccc(F)cc1C(F)(F)F [10719/G11] | 24.0 | 
53 | O=C1Nc2ccc(CCCl)cc2C1=Cc1c[nH]c2ccccc12 [10717/G06] | 34.0 | 
54 | Cc1c(Br)ccc2c1C(=Cc1ccc(F)cc1C(F)(F)F)C(=O)N2 [10719/C11] | −5.1 | 
55 | O=C1Nc2ccc(S(=O)(=O)N3CCOCC3)cc2C1=Cc1cc(Cl)cc(Br)c1O [10727/F04] | 92.0 | 
56 | O=C1Nc2c(Br)cc(Br)cc2C1=Cc1coc2ccc(Cl)cc2c1=O [10730/A06] | 61.0 | 
57 | O=C1Nc2ccc(CCCl)cc2C1=Cc1ccc([N+](=O)[O-])o1 [10718/G11] | 3.0 | 
58 | CSc1ccc(C=C2C(=O)Nc3ccc(S(=O)(=O)Nc4ccc(C(F)(F)F)cc4)cc32)cc1 [10729/E04] | 9.8 | 
59 | CNS(=O)(=O)c1ccc2c(c1)C(=Cc1ccc(Cl)s1)C(=O)N2 [10721/D07] | −6.8 | 
60 | CNS(=O)(=O)c1ccc2c(c1)C(=Cc1ccc(F)cc1Cl)C(=O)N2 [10719/D09] | 13.0 | 
61 | O=C1Nc2ccc(I)cc2C1=Cc1cccnc1 [10729/B08] | 66.0 | 
62 | O=C1Nc2ccc(S(=O)(=O)Nc3ccc(C(F)(F)F)cc3)cc2C1=Cc1ccc(C(F)(F)F)cc1 [10722/E11] | 84.0 | 
63 | O=C1Nc2ccc(S(=O)(=O)N3CCOCC3)cc2C1=Cc1c[nH]c2ccccc12 [10717/F06] | 49.0 | 

Row | Compound | Met Kinase % Inhibition (human MET) [%] | also measured
64 | O=C1Nc2ccc(S(=O)(=O)Nc3ccc(C(F)(F)F)cc3)cc2C1=Cc1ccncc1 [10729/E09] | 85.0 | 
65 | CNS(=O)(=O)c1ccc2c(c1)C(=Cc1ccc(N3CCN(C=O)CC3)cc1)C(=O)N2 [10725/D07] | 37.0 | 
66 | O=C1Nc2ccc(CCCl)cc2C1=Cc1cccs1 [10717/G03] | 4.5 | 
67 | Cc1c(Br)ccc2c1C(=Cc1sccc1Br)C(=O)N2 [10725/C02] | 6.3 | 
68 | CCCCN(CCCC)c1ccc(C=C2C(=O)Nc3c(Br)cc(Br)cc32)cc1 [10722/A10] | 79.0 | 
69 | Cc1ccc(C=C2C(=O)Nc3ccc(S(=O)(=O)Nc4ccc(C(F)(F)F)cc4)cc32)o1 [10725/E04] | 59.0 | 
70 | CCc1cc(CC)c(C=C2C(=O)Nc3ccc(S(=O)(=O)N4CCOCC4)cc32)[nH]1 [10727/F03] | 22.0 | 
71 | O=C1Nc2ccc(CCCl)cc2C1=Cc1ccc(C(=O)O)cc1 [10722/G05] | 9.7 | 
72 | CNS(=O)(=O)c1ccc2c(c1)C(=Cc1ccc(O)c(Br)c1)C(=O)N2 [10734/D09] | 88.0 | 
73 | CNS(=O)(=O)c1ccc2c(c1)C(=Cc1sccc1Br)C(=O)N2 [10725/D02] | 14.0 | 
74 | CCn1c2ccccc2c2cc(C=C3C(=O)Nc4ccc(S(=O)(=O)NC)cc43)ccc21 [10731/D02] | 8.7 | 
75 | Cc1cc(C=C2C(=O)Nc3c(Br)cc(Br)cc32)oc1C [10730/A11] | 91.0 | 
76 | CNS(=O)(=O)c1ccc2c(c1)C(=Cc1cc(Br)cc(OC)c1O)C(=O)N2 [10733/D08] | 80.0 | 
77 | CNS(=O)(=O)c1ccc2c(c1)C(=Cc1cccn1C)C(=O)N2 [10717/D04] | 21.0 | 
78 | Cc1ccsc1C=C1C(=O)Nc2ccc(I)cc21 [10729/B05] | 51.0 | 
79 | Cc1cc(C=C2C(=O)Nc3ccc(S(=O)(=O)N4CCOCC4)cc32)cc(C)c1OCc1ccccc1 [10733/F07] | −16.4 | 
80 | O=C1Nc2ccc(S(=O)(=O)Nc3ccc(C(F)(F)F)cc3)cc2C1=Cc1c(Br)cnn1-c1ccc(Cl)cc1 [10725/E10] | −4.7 | 
81 | Cc1c(Br)ccc2c1C(=Cc1sc3scc(C)c3c1C)C(=O)N2 [10724/C11] | 4.9 | 
82 | CC(=O)n1cc(C=C2C(=O)Nc3ccc(S(=O)(=O)Nc4ccc(C(F)(F)F)cc4)cc32)c2ccccc21 [10730/E05] | 49.0 | 
